Reference: publication PMC6738068 (British Journal of Cancer, 2019)
“Also recorded” adds a separate entry of the source. Where two headings read alike, the source gives them in different places.

Key:
[1] = tested on: patients with advanced solid tumours
Text: A standard 3+3 dose-escalation scheme was used to identify the maximally tolerated dose (MTD) and RP2D.
Patients without evidence of high-grade neutropenia during this run-in period resumed daily dosing in standard 28-day cycles.
Select haematologic DLT included febrile neutropenia grade ≥3 and/or neutropenia grade ≥3 associated with infection or asymptomatic neutropenia grade ≥3 that persisted for >7 days. Use of haematopoietic growth factors (e.g. G-CSF, erythropoietin) in Cycle 1 was not permitted unless a DLT occurred.
The RP2D was based on the MTD established during dose escalation together with a comprehensive review of toxicities, PKs, and efficacy outcomes.
Dose escalations occurred in 100% increments for individual dosing cohorts up to 32 mg/day. Subsequent dose escalations continued in increments not exceeding 50%, depending on toxicities experienced, and with the approval of local Investigators and the external Medical Monitor.
Hematologic DLTs were defined as drug-related anemia grade ≥3; febrile neutropenia grade ≥3, and/or neutropenia grade ≥3 associated with infection; asymptomatic neutropenia grade ≥3 that persisted for >7 days; asymptomatic thrombocytopenia grade ≥3 that persisted for >7 days following treatment interruption; grade 3 thrombocytopenia associated with bleeding; or grade 4 thrombocytopenia.
Dose escalation decisions were made following the completion of Cycle 1 for all patients enrolled in a given dose level, taking into consideration adverse events (AE) and pharmacokinetic results.

FGFR1 = tested on: FGFR1; design: method as in printed; conditions: preclinical, ref not given; cited from earlier work
P-glycoprotein = tested on: P-glycoprotein; design: method as in printed; conditions: preclinical testing, ref not given; cited from earlier work
dogs = tested on: dogs; design: method as in printed; conditions: toxicology studies, ref not given; cited from earlier work
AurB = tested on: AurB; design: method as in printed; conditions: preclinical, ref not given; cited from earlier work
PLK2 = tested on: PLK2; design: method as in printed; conditions: preclinical, ref not given; cited from earlier work
PLK1 = tested on: PLK1; design: method as in printed; conditions: preclinical, ref not given; cited from earlier work
[2] = Plasma pharmacokinetics in phase 1 patients; format: in vivo, human
Procedure: In the expansion cohort, blood samples were collected on Day 1 for Cycle 0 and Day 28 of Cycle 1. Additional samples were drawn prior to dosing on Day 15 of subsequent cycles.
Samples were analysed in accordance with all applicable United States Federal Drug Administration (FDA) and Organisation for Economic Co-operation and Development (OECD) regulations. […] After evaporation of the extraction solvent, sample extracts were reconstituted and analysed by reversed-phase high-performance liquid chromatography using a Waters Atlantis dC18 column. The mobile phase was nebulised using heated nitrogen in a Z-spray source/interface set to electrospray positive ionisation. The ionised compounds were detected using mass spectrometry. The lower limit of quantification was 20 pg/ml. Samples were analysed at Microconstants, San Diego, CA.

rodents = tested on: rodents; design: method as in printed; conditions: toxicology studies, ref not given; cited from earlier work
BCRP = tested on: BCRP; design: method as in printed; conditions: preclinical testing, ref not given; cited from earlier work
TrkB = tested on: TrkB; design: method as in printed; conditions: preclinical, ref not given; cited from earlier work
OCT1 = tested on: OCT1; design: method as in printed; conditions: preclinical testing, ref not given; cited from earlier work
Ros = tested on: Ros; design: method as in printed; conditions: preclinical, ref not given; cited from earlier work
Tie2 = tested on: Tie2; design: method as in printed; conditions: preclinical, ref not given; cited from earlier work
CYP1A2 = tested on: CYP1A2; design: method as in printed; conditions: preclinical testing, ref not given; cited from earlier work
CYP3A4 = tested on: CYP3A4; design: method as in printed; conditions: preclinical testing, ref not given; cited from earlier work
PLK3 = tested on: PLK3; design: method as in printed; conditions: preclinical, ref not given; cited from earlier work
TrkA = tested on: TrkA; design: method as in printed; conditions: preclinical, ref not given; cited from earlier work
Abl [T315I] = tested on: Abl [T315I]; design: method as in printed; conditions: preclinical, ref not given; cited from earlier work
[3] = tested on: patient-derived xenograft (PDX) models across multiple tumour types; conditions: preclinical, including PDX models; cited from earlier work
[4] = oral daily 72 mg (n = 6; one patient removed, not DLT evaluable)

COc1ccc2c(c1)[C@]1(C[C@H]1c1ccc3c(/C=C/c4ccc(CN5C[C@@H](C)O[C@@H](C)C5)cc4)n[nH]c3c1)C(=O)N2 [CFI-400945]
DLT events ([1]; 64 mg dose escalation, 6 patients): no DLT events | patients with a DLT event ([1]; 64 mg dose level, escalation plus expansion): 1/15 | DLT event in dose expansion ([1]; 64 mg expansion, Cycle 1 Day 15): One patient experienced grade 4 febrile neutropenia | tolerability ([1]; 64 mg, continuous daily dosing): well tolerated; also recorded: tolerable | DLT events ([1]; 72 mg (7 total), Cycle 1): Two patients experienced DLT events | tolerability ([1]; 96 mg daily): intolerable | DLT events ([1]; 96 mg, Cycle 1): one DLT (grade 3 febrile neutropenia) | Total number of patients with DLT, all dosages ([1]; 3-96 mg (n = 48)): 4 | DLT description, grade 3 ([1]; all dose levels (n = 48)): Neutropenia, febrile neutropenia | DLT description, grade 4 ([1]; all dose levels (n = 48)): Febrile neutropenia, lipase elevated | recommended phase 2 dose (RP2D) ([1]; continuous daily oral dosing): 64 mg | principal DLT ([1]; continuous dosing schedule): Neutropenia | Total number of patients with DLT at each dosage ([1]; oral daily 3 mg (n = 3)): 0 | patients with DLT, grade 1 ([1]; oral daily 3 mg (n = 3)): 0 | patients with DLT, grade 2 ([1]; oral daily 3 mg (n = 3)): 0 | patients with DLT, grade 3, number (%) ([1]; oral daily 3 mg (n = 3)): 0 | patients with DLT, grade 4, number (%) ([1]; oral daily 3 mg (n = 3)): 0 | patients with DLT, grade 5 ([1]; oral daily 3 mg (n = 3)): 0 | Total number of patients with DLT at each dosage ([1]; oral daily 6 mg (n = 3)): 0 | patients with DLT, grade 1 ([1]; oral daily 6 mg (n = 3)): 0 | patients with DLT, grade 2 ([1]; oral daily 6 mg (n = 3)): 0 | patients with DLT, grade 3, number (%) ([1]; oral daily 6 mg (n = 3)): 0 | patients with DLT, grade 4, number (%) ([1]; oral daily 6 mg (n = 3)): 0 | patients with DLT, grade 5 ([1]; oral daily 6 mg (n = 3)): 0 | Total number of patients with DLT at each dosage ([1]; oral daily 11 mg (n = 3)): 0 | patients with DLT, grade 1 ([1]; oral daily 11 mg (n = 3)): 0 | patients with DLT, grade 2 ([1]; oral daily 11 mg (n = 3)): 0 | patients with DLT, grade 3, number (%) ([1]; oral daily 11 mg (n = 3)): 0 | patients with DLT, grade 4, number (%) ([1]; oral daily 11 mg (n = 3)): 0 | patients with DLT, grade 5 ([1]; oral daily 11 mg (n = 3)): 0 | Total number of patients with DLT at each dosage ([1]; oral daily 16 mg (n = 3)): 0 | patients with DLT, grade 1 ([1]; oral daily 16 mg (n = 3)): 0 | patients with DLT, grade 2 ([1]; oral daily 16 mg (n = 3)): 0 | patients with DLT, grade 3, number (%) ([1]; oral daily 16 mg (n = 3)): 0 | patients with DLT, grade 4, number (%) ([1]; oral daily 16 mg (n = 3)): 0 | patients with DLT, grade 5 ([1]; oral daily 16 mg (n = 3)): 0 | Total number of patients with DLT at each dosage ([1]; oral daily 24 mg (n = 3)): 0 | patients with DLT, grade 1 ([1]; oral daily 24 mg (n = 3)): 0 | patients with DLT, grade 2 ([1]; oral daily 24 mg (n = 3)): 0 | patients with DLT, grade 3, number (%) ([1]; oral daily 24 mg (n = 3)): 0 | patients with DLT, grade 4, number (%) ([1]; oral daily 24 mg (n = 3)): 0 | patients with DLT, grade 5 ([1]; oral daily 24 mg (n = 3)): 0 | Total number of patients with DLT at each dosage ([1]; oral daily 32 mg (n = 3)): 0 | patients with DLT, grade 1 ([1]; oral daily 32 mg (n = 3)): 0 | patients with DLT, grade 2 ([1]; oral daily 32 mg (n = 3)): 0 | patients with DLT, grade 3, number (%) ([1]; oral daily 32 mg (n = 3)): 0 | patients with DLT, grade 4, number (%) ([1]; oral daily 32 mg (n = 3)): 0 | patients with DLT, grade 5 ([1]; oral daily 32 mg (n = 3)): 0 | Total number of patients with DLT at each dosage ([1]; oral daily 48 mg (n = 3)): 0 | patients with DLT, grade 1 ([1]; oral daily 48 mg (n = 3)): 0 | patients with DLT, grade 2 ([1]; oral daily 48 mg (n = 3)): 0 | patients with DLT, grade 3, number (%) ([1]; oral daily 48 mg (n = 3)): 0 | patients with DLT, grade 4, number (%) ([1]; oral daily 48 mg (n = 3)): 0 | patients with DLT, grade 5 ([1]; oral daily 48 mg (n = 3)): 0 | Total number of patients with DLT at each dosage ([1]; oral daily 64 mg (n = 15)): 1 | patients with DLT, grade 1 ([1]; oral daily 64 mg (n = 15)): 0 | patients with DLT, grade 2 ([1]; oral daily 64 mg (n = 15)): 0 | patients with DLT, grade 3, number (%) ([1]; oral daily 64 mg (n = 15)): 0 | patients with DLT, grade 4, number (%) ([1]; oral daily 64 mg (n = 15)): 1 (6.7) | patients with DLT, grade 5 ([1]; oral daily 64 mg (n = 15)): 0 | Total number of patients with DLT at each dosage [1, 4]: 2 | patients with DLT, grade 1 [1, 4]: 0 | patients with DLT, grade 2 [1, 4]: 0 | patients with DLT, grade 3, number (%) [1, 4]: 1 (16.7) | patients with DLT, grade 4, number (%) [1, 4]: 1 (16.7) | patients with DLT, grade 5 [1, 4]: 0 | Total number of patients with DLT at each dosage ([1]; oral daily 96 mg (n = 6)): 1 | patients with DLT, grade 1 ([1]; oral daily 96 mg (n = 6)): 0 | patients with DLT, grade 2 ([1]; oral daily 96 mg (n = 6)): 0 | patients with DLT, grade 3, number (%) ([1]; oral daily 96 mg (n = 6)): 1 (16.7) | patients with DLT, grade 4, number (%) ([1]; oral daily 96 mg (n = 6)): 0 | patients with DLT, grade 5 ([1]; oral daily 96 mg (n = 6)): 0 | IC50 (FGFR1): < 100 nM | inhibition of P-glycoprotein (P-glycoprotein): inhibitor | primary toxicities (dogs): haematopoietic effects (myeloid suppression, bone marrow hypocellularity) | IC50 (AurB): < 100 nM | IC50 (PLK2): > 50000 nM | IC50 (PLK1): > 50000 nM | dose proportionality of exposure ([2]; 3-96 mg): generally dose proportional | exposure at Day 28 higher than exposure at Day 1, average ([2]; across all dose levels): 37% | AUC(0-t) ([2]; human, plasma, oral, 64 mg, Day 1, read-out: AUC0–24 h): 428 ng·h/mL | Cmax ([2]; human, plasma, oral, 64 mg, Day 1, read-out: average Cmax): 37 ng/mL | AUC(0-t) ([2]; human, plasma, oral, 64 mg, after 28 days of dosing, read-out: AUC0–24 h): 564 ng·h/mL | Cmax ([2]; human, plasma, oral, 64 mg, after 28 days of dosing, read-out: average Cmax): 44 ng/mL | AUC(0-t) ([2]; human, plasma, oral, Day 1, read-out: AUC0–24 h values associated with grade 3/4 neutropenia): > 400 ng·h/mL | Cmax ([2]; human, plasma, oral, Day 1, read-out: Cmax values associated with grade 3/4 neutropenia): ≥ 38 ng/mL | half-life ([2]; human, plasma, oral, 64 mg, Day 1, read-out: half-life (t1/2) (converted)): 9 h | time to maximum plasma concentration (Cmax) after dosing ([2]; oral, fasting state): 2 to 4 h | primary toxicities (rodents): haematopoietic effects (myeloid suppression, bone marrow hypocellularity) | inhibition of BCRP (BCRP): inhibitor | IC50 (TrkB): < 100 nM | inhibition of OCT1 (OCT1): inhibitor | IC50 (Ros): < 100 nM | IC50 (Tie2): < 100 nM | time-dependent inhibition of CYP1A2 (CYP1A2): time-dependent inhibitor | time-dependent inhibition of CYP3A4 (CYP3A4): time-dependent inhibitor | IC50 (PLK3): > 50000 nM | IC50 (TrkA): < 100 nM | IC50 (Abl [T315I]): < 100 nM | in vivo antitumour activity [3]: robust in vivo antitumour activity
